Laboratory results taken from patent publication US12479820B2, “Pyridin-3-yl derivatives” (Idorsia Pharmaceuticals Ltd, priority 2019, dated 2025).

What follows are molecules tested against T1, human LPA1 receptor (Homo sapiens, UniProt Q92633) (assay: Beta-arrestin recruitment assay to determine IC50 values for human LPAR1). Settings: Tango EDG2-bla U2OS cells, antagonist assay, LPA 18:1 500 nM final.
T1 construct: TEV protease site; Gal4-VP16 transcription factor; host or cells: Tango EDG2-bla U2OS cells
Type: cell-based
From the text: Beta-Arrestin Recruitment Assay to Determine IC50 Values for Human LPAR1
The Tango™ EDG2-bla U2OS cells are obtained from Invitrogen. These cells contain the human LPA1 receptor cDNA linked to a TEV protease site and a Gal4-VP16 transcription factor integrated into the Tango™ GPCR-bla U2OS parental cell line. This parental cell line stably expresses a beta-arrestin/TEV protease fusion protein and the beta-lactamase (bla) reporter gene under the control of a UAS response element. Upon LPA (agonist) binding, LPA1 receptor gets activated, leading to arrestin-protease recruitment and proteolytic release of the transcription factor: The transcription factor then regulates transcription of a beta-lactamase reporter construct, which is measured upon addition of the live-cell substrate.
10′000 Tango™ EDG2-bla U2OS cells are seeded in a 384-well black with clear bottom plate in 30 μl Freestyle 293 Expression Medium (Invitrogen) and incubated for 20 h at 37° C., 5% CO2. For antagonist assays, 5 μl of test compound (dilution series in DMSO/Freestyle 293 Expression medium/0.1% fatty acid free BSA (Sigma)) or buffer control are added per well and incubated for 30 min at 37° C., 5% CO2. 5 μl of LPA 18:1 (500 nM final) (solution in Freestyle 293 Expression medium/0.1% fatty acid free BSA (Sigma)) are added per well and the plate incubated for 16 h at 37° C., 5% CO2. Cells are then loaded with LiveBLAzer-FRET™ B/G Substrate (Invitrogen) for 2 h in the dark and the fluorescence emission at 460 nm and 530 nm is measured using the SynergyMx reader (BioTek). Following the background subtraction from both channels, the 460/530 nm emission ratio for each well is calculated, then plotted and fitted to a 4-parameter logistic function to obtain IC50 values. IC50 is the concentration of antagonist inhibiting 50% of the maximal response.

T1 sequence (Q92633 whole entry, the tested form may be a part): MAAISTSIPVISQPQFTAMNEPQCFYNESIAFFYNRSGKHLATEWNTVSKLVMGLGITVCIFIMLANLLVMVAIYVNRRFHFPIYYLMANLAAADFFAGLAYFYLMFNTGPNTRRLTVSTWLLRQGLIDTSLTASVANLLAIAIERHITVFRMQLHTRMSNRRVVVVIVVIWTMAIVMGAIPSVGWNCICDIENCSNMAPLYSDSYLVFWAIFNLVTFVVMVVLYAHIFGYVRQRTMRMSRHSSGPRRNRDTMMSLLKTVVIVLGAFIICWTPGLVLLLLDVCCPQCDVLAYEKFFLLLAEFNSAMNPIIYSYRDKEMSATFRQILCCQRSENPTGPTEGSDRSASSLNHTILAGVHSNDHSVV

Row | SMILES | IC50
1 | CCOC(=O)C(C)(C)CCCN1CC(C(=O)Nc2cnc(Cl)cc2OC)(c2ccccc2C(C)C)C1 [Example 18-24, ethyl 5-(3-((6-chloro-4-methoxypyridin-3-yl)carbamoyl)-3-(2-isopropylphenyl)azetidin-1-yl)-2,2-dimethylpentanoate] | 156 nM
2 | CC(C)Oc1cc(Cl)ncc1NC(=O)C1(c2ccccc2C(C)C)CNC1 [Example 6, N-(6-chloro-4-isopropoxypyridin-3-yl)-3-(2-isopropylphenyl)azetidine-3-carboxamide] | 3 nM
3 | CCOc1cc(Cl)ncc1NC(=O)C1(c2ccccc2C(C)C)CN(C(=O)CC(C)(C)C(=O)OC)C1 [Example 19-21, methyl 4-(3-((6-chloro-4-ethoxypyridin-3-yl)carbamoyl)-3-(2-isopropylphenyl)azetidin-1-yl)-2,2-dimethyl-4-oxobutanoate] | 72 nM
4 | COc1cc(Cl)ncc1NC(=O)C1(c2ccccc2C(C)C)CCN(c2nc(C)ncc2F)CC1 [Example 24-18, N-(6-chloro-4-methoxypyridin-3-yl)-1-(5-fluoro-2-methylpyrimidin-4-yl)-4-(2-isopropylphenyl)piperidine-4-carboxamide] | 5 nM
5 | COc1cc(Cl)ncc1NC(=O)C1(c2ccccc2C(C)C)CN(c2ccnc(C)n2)C1 [Example 24-12, N-(6-chloro-4-methoxypyridin-3-yl)-3-(2-isopropylphenyl)-1-(2-methylpyrimidin-4-yl)azetidine-3-carboxamide] | 7 nM
6 | COc1cc(Cl)ncc1NC(=O)C1(c2ccccc2C(C)C)CCNCC1 [Example 10, N-(6-chloro-4-methoxypyridin-3-yl)-4-(2-isopropylphenyl)piperidine-4-carboxamide] | 12 nM
7 | COc1cc(Cl)ncc1NC(=O)C1(c2ccccc2C(C)C)CN(c2nnn[nH]2)C1 [Example 25, N-(6-chloro-4-methoxypyridin-3-yl)-3-(2-isopropylphenyl)-1-(1H-tetrazol-5-yl)azetidine-3-carboxamide] | 270 nM
8 | COc1cc(Cl)ncc1NC(=O)C1(c2ccccc2C(C)C)CN(c2ccncc2F)C1 [Example 24-2, N-(6-chloro-4-methoxypyridin-3-yl)-1-(3-fluoropyridin-4-yl)-3-(2-isopropylphenyl)azetidine-3-carboxamide] | 2 nM
9 | CCNC(=O)N1CC(C(=O)Nc2cnc(Cl)cc2OC)(c2ccccc2C(C)C)C1 [Example 22-3, N3-(6-chloro-4-methoxypyridin-3-yl)-N1-ethyl-3-(2-isopropylphenyl)azetidine-1,3-dicarboxamide] | 6 nM
10 | COc1cc(Cl)ncc1NC(=O)C1(c2ccccc2C(C)C)CN(CCN)C1 [Example 18-7, 1-(2-aminoethyl)-N-(6-chloro-4-methoxypyridin-3-yl)-3-(2-isopropylphenyl)azetidine-3-carboxamide] | 44 nM
11 | COC[C@H](C)Oc1cc(Cl)ncc1NC(=O)C1(c2ccccc2C(C)C)CNC1 [Example 9, (S)-N-(6-chloro-4-((1-methoxypropan-2-yl)oxy)pyridin-3-yl)-3-(2-isopropylphenyl)azetidine-3-carboxamide] | 4 nM
12 | COc1cc(Cl)ncc1NC(=O)C1(c2ccccc2C(C)C)CN(c2cc(C)ncc2F)C1 [Example 24-4, N-(6-chloro-4-methoxypyridin-3-yl)-1-(5-fluoro-2-methylpyridin-4-yl)-3-(2-isopropylphenyl)azetidine-3-carboxamide] | 2 nM
13 | COc1cc(Cl)ncc1NC(=O)C1(c2ccccc2C(C)C)CN(CC(C)C)C1 [Example 18-2, N-(6-chloro-4-methoxypyridin-3-yl)-1-isobutyl-3-(2-isopropylphenyl)azetidine-3-carboxamide] | 35 nM
14 | COCCNC(=O)N1CC(C(=O)Nc2cnc(Cl)cc2OC)(c2ccccc2C(C)C)C1 [Example 22-10, N3-(6-chloro-4-methoxypyridin-3-yl)-3-(2-isopropylphenyl)-N1-(2-methoxyethyl)azetidine-1,3-dicarboxamide] | 15 nM
15 | COc1cc(Br)ncc1NC(=O)C1(c2ccccc2C(C)C)CN(S(N)(=O)=O)C1 [Example 21-9, N-(6-bromo-4-methoxypyridin-3-yl)-3-(2-isopropylphenyl)-1-sulfamoylazetidine-3-carboxamide] | 2 nM
16 | CNC(=O)N1CC(C(=O)Nc2cnc(Cl)cc2OC)(c2ccccc2C(C)C)C1 [Example 22-2, N3-(6-chloro-4-methoxypyridin-3-yl)-3-(2-isopropylphenyl)-N1-methylazetidine-1,3-dicarboxamide] | 12 nM

Row | SMILES | IC50
17 | CCOc1cc(Cl)ncc1NC(=O)C1(c2ccccc2C(C)C)CNC1 [Example 5, N-(6-chloro-4-ethoxypyridin-3-yl)-3-(2-isopropylphenyl)azetidine-3-carboxamide] | 3 nM
18 | COc1cc(Cl)ncc1NC(=O)C1(c2ccccc2C(C)C)CN(C(=O)NC2CC2)C1 [Example 22-5, N3-(6-chloro-4-methoxypyridin-3-yl)-N1-cyclopropyl-3-(2-isopropylphenyl)azetidine-1,3-dicarboxamide] | 5 nM
19 | COc1cc(Cl)ncc1NC(=O)C1(c2ccccc2C(C)C)CN(Cc2c[nH]nn2)C1 [Example 18-15, 1-((1H-1,2,3-triazol-4-yl)methyl)-N-(6-chloro-4-methoxypyridin-3-yl)-3-(2-isopropylphenyl)azetidine-3-carboxamide] | 61 nM
20 | COc1cc(Cl)ncc1NC(=O)C1(c2ccccc2C(C)C)CN(C(=O)CCO)C1 [Example 19-1, N-(6-chloro-4-methoxypyridin-3-yl)-1-(3-hydroxypropanoyl)-3-(2-isopropylphenyl)azetidine-3-carboxamide] | 127 nM
21 | COc1cc(Cl)ncc1NC(=O)C1(c2ccccc2C(C)C)CN(S(=O)(=O)NC2CC2)C1 [Example 21-13, N-(6-chloro-4-methoxypyridin-3-yl)-1-(N-cyclopropylsulfamoyl)-3-(2-isopropylphenyl)azetidine-3-carboxamide] | 22 nM
22 | COc1cc(Cl)ncc1NC(=O)C1(c2ccccc2C(C)C)CN(c2cc(C)ncn2)C1 [Example 24-14, N-(6-chloro-4-methoxypyridin-3-yl)-3-(2-isopropylphenyl)-1-(6-methylpyrimidin-4-yl)azetidine-3-carboxamide] | 8 nM
23 | COc1cc(Cl)ncc1NC(=O)C1(c2ccccc2C(C)C)CN(C(=O)Cn2cc(CO)nn2)C1 [Example 19-9, N-(6-chloro-4-methoxypyridin-3-yl)-1-(2-(4-(hydroxymethyl)-1H-1,2,3-triazol-1-yl)acetyl)-3-(2-isopropylphenyl)azetidine-3-carboxamide] | 52 nM
24 | COc1cc(Cl)ncc1NC(=O)C1(c2ccccc2C2CCCC2)CN(S(N)(=O)=O)C1 [Example 21-19, N-(6-chloro-4-methoxypyridin-3-yl)-3-(2-cyclopentylphenyl)-1-sulfamoylazetidine-3-carboxamide] | 4 nM
25 | COc1cc(Cl)ncc1NC(=O)C1(c2ccccc2C(C)C)CN(CCO)C1 [Example 18-3, N-(6-chloro-4-methoxypyridin-3-yl)-1-(2-hydroxyethyl)-3-(2-isopropylphenyl)azetidine-3-carboxamide] | 37 nM
26 | COc1cc(Cl)ncc1NC(=O)C1(c2ccccc2C(C)C)CN(C(=O)NCC(=O)O)C1 [Example 22-12, (3-((6-chloro-4-methoxypyridin-3-yl)carbamoyl)-3-(2-isopropylphenyl)azetidine-1-carbonyl)glycine] | 431 nM
27 | COC(=O)C(C)(C)CC(=O)N1CC(C(=O)Nc2cnc(Cl)cc2OC)(c2ccccc2C(C)C)C1 [Example 19-17, methyl 4-(3-((6-chloro-4-methoxypyridin-3-yl)carbamoyl)-3-(2-isopropylphenyl)azetidin-1-yl)-2,2-dimethyl-4-oxobutanoate] | 43 nM
28 | COc1cc(Cl)ncc1NC(=O)C1(c2ccccc2C(C)C)CCN(S(N)(=O)=O)CC1 [Example 21-8, N-(6-chloro-4-methoxypyridin-3-yl)-4-(2-isopropylphenyl)-1-sulfamoylpiperidine-4-carboxamide] | 16 nM
29 | COCCNS(=O)(=O)N1CC(C(=O)Nc2cnc(Cl)cc2OC)(c2ccccc2C(C)C)C1 [Example 21-20, N-(6-chloro-4-methoxypyridin-3-yl)-3-(2-isopropylphenyl)-1-(N-(2-methoxyethyl)sulfamoyl)azetidine-3-carboxamide] | 73 nM
30 | COc1cc(Cl)ncc1NC(=O)C1(c2cc(F)ccc2C(C)C)CNC1 [Example 14, N-(6-chloro-4-methoxypyridin-3-yl)-3-(5-fluoro-2-isopropylphenyl)azetidine-3-carboxamide] | 12 nM
31 | CCOc1cc(Cl)ncc1NC(=O)C1(c2ccccc2C(C)C)CN(CCC(C)(C)C(=O)OC)C1 [Example 18-18, methyl 4-(3-((6-chloro-4-ethoxypyridin-3-yl)carbamoyl)-3-(2-isopropylphenyl)azetidin-1-yl)-2,2-dimethylbutanoate] | 142 nM
